Source: PubChem BioAssay (NCI)
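1) Cells in 96-well plates. 2) Compound, 48 h, 5 concentrations. 3) Linear interpolation between surrounding doses. 4) Unreached endpoint = highest concentration. Definition used: TGI = concentration required for complete inhibition of growth.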 Where a SMILES comes first, the peptide text is derived from it. [ ]: non-standard residue; d: D form. The star is where a group is joined. ξ: configuration not given here. NMeF = CN[CH](Cc1ccccc1)C(=O)O; ξNMe2Val = CC(C)C(C(=O)*)N(C)C; NMeV = CN[CH](C(=O)O)C(C)C; ξNMeV = CNC(C(=O)O)C(C)C; Boc = CC(C)(C)OC(=O)*; OBn = c1ccc(CO*)cc1; OtBu = CC(C)(C)O*

Legend:
Test in all cases: inhibition of tumour cell growth, NCI panel, 48 h
SNB-19 CNS = system: SNB-19 CNS
SN12C renal = system: SN12C renal
HCT-116 colon = system: HCT-116 colon
UO-31 renal = system: UO-31 renal
ACHN renal = system: ACHN renal
SK-OV-3 ovarian = system: SK-OV-3 ovarian
OVCAR-4 ovarian = system: OVCAR-4 ovarian
786-0 renal = system: 786-0 renal
EKVX NSCLC = system: EKVX NSCLC
IGROV1 ovarian = system: IGROV1 ovarian
MCF7 breast = system: MCF7 breast
DU-145 prostate = system: DU-145 prostate

| Compound | TGI (SNB-19 CNS) [µM] | TGI (SN12C renal) [µM] | TGI (HCT-116 colon) [µM] | TGI (UO-31 renal) [µM] | TGI (ACHN renal) [µM] | TGI (SK-OV-3 ovarian) [µM] | TGI (OVCAR-4 ovarian) [µM] | TGI (786-0 renal) [µM] | TGI (EKVX NSCLC) [µM] | TGI (IGROV1 ovarian) [µM] | TGI (MCF7 breast) [µM] | TGI (DU-145 prostate) [µM] |
| --- | --- | --- | --- | --- | --- | --- | --- | --- | --- | --- | --- | --- |
| CC(C)C(C(=O)N(C)[C@H](C(=O)N1CCC[C@H]1C(=O)N(C)[C@@H](Cc1ccccc1)C(=O)OCc1ccccc1)C(C)C)N(C)C(=O)[C@@H](NC(=O)OC(C)(C)C)C(C)C (stereo partly specified) (Boc-V[ξNMeV][NMeV]P[NMeF]-OBn) | > 31.6 | > 100 | > 31.6 | > 31.6 | > 100 | > 31.6 | > 100 | > 71.3 | > 31.6 | > 31.6 | – | – |
| CCCCCCCCCCCC[N+]12CC[N+](C)(CC1)CC2 | 38.7 | > 100 | > 100 | > 100 | > 100 | > 100 | > 100 | 26.8 | > 100 | 11.8 | – | – |
| O=c1[nH]c2ccc(CC(=S)N3CCOCC3)cc2o1 | – | – | > 100 | – | > 100 | > 100 | – | > 100 | > 100 | > 100 | > 100 | – |
| COc1cccc(OC)c1NC(=O)C(=O)Nn1c(NNC(=O)c2ccncc2)nc2ccccc2c1=O | > 100 | > 100 | > 100 | > 100 | > 100 | > 100 | > 100 | > 100 | > 100 | > 100 | > 100 | – |
| CC(=O)OCC1OC(n2c(=S)n(-c3ccccc3)c(=O)c3cc(Br)ccc32)C(OC(C)=O)C1OC(C)=O (stereo unspecified) | > 100 | > 100 | > 100 | > 100 | > 100 | > 100 | > 100 | > 100 | > 100 | > 100 | – | – |
| Cc1ccc(Nc2nc(-c3ccc(-c4ccc([N+](=O)[O-])cc4)o3)cs2)cc1 | > 100 | > 100 | > 100 | > 100 | > 100 | > 100 | > 100 | > 100 | – | > 100 | – | – |
| CC(=O)Nc1ccc(/C=c2\sc3nnc(-c4cccnc4)n3c2=O)cc1 | 77.2 | 31 | 28.9 | 24.7 | 26.9 | 66 | 30.7 | 31.4 | 55.2 | 32.5 | – | – |
| O=c1/c(=C/c2ccccn2)sc2nc3cc4c(cc3n12)OCCO4 | > 100 | > 100 | > 100 | > 100 | > 100 | > 100 | > 100 | > 100 | – | > 100 | – | > 100 |
| CC(C)C(C(=O)N(C)C(Cc1ccccc1)C(=O)N(C)C(C(=O)N(C)C(C(=O)N1CCCC1C(=O)OC(C)(C)C)C(C)C)C(C)C)N(C)C (stereo unspecified) (ξNMe2Val-[NMeF][NMeV][NMeV]P-OtBu; configuration not given here) | > 100 | > 100 | > 100 | > 100 | > 100 | – | – | > 100 | > 100 | > 100 | – | – |
| COc1ccc(NC(=O)C(=O)Cc2ccc([N+](=O)[O-])c([N+](=O)[O-])c2CC(=O)C(=O)Nc2ccc(OC)cc2OC)c(OC)c1 | > 100 | > 100 | > 100 | > 100 | > 100 | > 100 | > 100 | > 100 | > 100 | > 100 | – | – |
| CN(C)CCC[N+]1=Nc2cccc3cccc(c23)N1 | > 100 | > 100 | > 100 | > 100 | > 100 | > 100 | > 100 | > 100 | > 100 | > 100 | – | – |
| Cc1nn2c(c1C#N)NNc1c-2sc(=N)nnc1=O | > 100 | > 100 | > 100 | > 100 | – | > 100 | > 100 | > 100 | > 100 | > 100 | – | – |
| Cc1ccc(NC(=O)C2C3CCC(O3)C2C(=O)O)cc1 (stereo unspecified) | > 100 | > 81.4 | > 54.7 | > 100 | > 100 | > 100 | > 100 | > 56.1 | > 100 | > 100 | – | – |
| N#COc1ccc(Oc2ccc(OC#N)cc2)cc1 | > 100 | > 100 | > 100 | > 100 | > 100 | > 100 | > 100 | > 100 | > 100 | > 100 | – | – |
| CC#COS(=O)(=O)c1ccc(C)cc1 | > 100 | > 100 | > 100 | > 100 | > 100 | > 100 | > 100 | > 100 | > 100 | > 100 | – | – |
| COc1ccc(C2=Nc3ccccc3N=C(SC)C2)cc1 | > 100 | > 100 | > 100 | > 100 | > 100 | > 100 | > 100 | > 100 | > 100 | > 100 | – | – |
| CC12CCc3ccccc3C1=NNC(=O)C2 (stereo unspecified) | > 100 | > 100 | > 100 | > 100 | > 100 | > 100 | > 100 | > 100 | > 100 | > 100 | – | – |
| CCCCCCCCCCCCCS(=O)(=O)NCC(N)=O | > 100 | > 100 | > 100 | > 100 | > 100 | > 100 | > 100 | > 100 | > 100 | > 100 | – | – |
| O=C1[C@@H]2C(c3ccccc3[N+](=O)[O-])=NO[C@@H]2C(=O)N1c1ccc(Cc2ccc(N3C(=O)[C@H]4C(c5ccccc5[N+](=O)[O-])=NO[C@H]4C3=O)cc2)cc1 | > 100 | > 100 | > 100 | > 100 | > 100 | – | > 100 | > 100 | > 100 | > 100 | – | – |
| COC(=O)C(=O)C(C(=O)OC)C(=O)C(=O)Nc1c(Cl)cc([N+](=O)[O-])cc1Cl (stereo unspecified) | > 100 | > 100 | > 100 | > 100 | > 100 | > 100 | > 100 | > 100 | > 100 | > 100 | > 100 | – |
| O=C1CC(c2ccccc2)n2c(nc3ccccc32)N1 (stereo unspecified) | > 100 | – | > 100 | > 100 | > 100 | > 100 | > 100 | > 100 | > 100 | > 100 | > 100 | – |
| Cc1ccc(S(=O)(=O)NNS(C)(=O)=O)cc1 | > 100 | > 100 | > 100 | > 100 | > 100 | – | > 100 | > 100 | > 100 | > 100 | – | – |
| CCCCOC(=O)NC(=O)c1cn(CCCOC(=O)CCCCCCCCC(=O)OCCCn2cc(C(=O)NC(=O)OCCCC)c(=O)n(C)c2=O)c(=O)n(C)c1=O | > 100 | > 100 | > 100 | > 100 | > 100 | – | > 100 | > 100 | > 100 | > 100 | – | – |
| COc1ccc([C@H]2CC3C(=O)N(c4ccc(OC)cc4)C(=O)C3c3[nH]c4ccccc4c32)cc1 (stereo partly specified) | > 100 | > 100 | > 100 | > 100 | > 100 | > 100 | > 100 | 47.7 | > 100 | > 100 | – | – |
| Brc1ccc(-c2cc3c(cc2C2SCCS2)OCO3)cc1 | > 100 | > 100 | > 100 | 90.4 | > 100 | > 100 | > 100 | > 100 | 75.1 | > 100 | – | – |
| CCN(CC)c1c(C)nnn1C1OC(COC(C)=O)C(OC(C)=O)C(OC(C)=O)C1OC(C)=O (stereo unspecified) | > 100 | > 100 | > 100 | > 100 | > 100 | > 100 | > 100 | > 100 | > 100 | > 100 | – | – |
| O=C1CN(c2cccc(C(F)(F)F)c2)C(=O)CN1CCN1CC(=O)N(c2cccc(C(F)(F)F)c2)CC1=O | > 100 | > 100 | > 100 | > 100 | > 100 | > 100 | > 100 | > 100 | > 100 | > 100 | > 100 | – |
| CSC(C1c2ccccc2N(C)c2[nH]c(=O)n(C)c(=O)c21)S(=O)(=O)c1ccc(C)cc1 (stereo unspecified) | > 100 | > 100 | > 100 | > 100 | – | > 100 | > 100 | > 100 | > 100 | > 100 | – | – |
| COc1ccc2nc3ccccc3c(NCCCCN(CCCl)CCCl)c2c1 | 7.9 | 3.13 | 1.32 | 2.29 | 1.15 | – | 0.542 | 1.64 | – | 17.7 | 5.23 | – |
| CCO/C(O)=c1/s/c(=C(\C#N)c2nc3ccccc3[nH]2)n(-c2ccccc2)c1=N | > 100 | > 100 | > 100 | > 100 | > 100 | > 100 | > 100 | > 100 | > 100 | > 100 | – | – |
